Measurements from article PMC8997913, “Lichen Secondary Metabolites Inhibit the Wnt/β-Catenin Pathway in Glioblastoma Cells and Improve the Anticancer Effects of Temozolomide” (Cells, 2022).

Columns and labels:
[1] = set-up: method as in PMID 34959693, PMID 33916370; details: previous studies, ref [5],[14]; cited from earlier work
[2] = tested on: Wnt/β-catenin pathway target genes in A-172 cells; experiment: qPCR of β-catenin and Wnt target genes, A-172; assay type: cell-based, human; details: A-172, 48 h
Description: (§1) Based on the MTT test, the lichen secondary metabolite concentrations allowing the survival of more than 70% of cells were chosen for the subsequent experiments. The compounds were added as follows: A-172 cells—atranorin 25 µM, caperatic acid 50 µM, physodic acid 25 µM, squamatic acid 25 µM, salazinic acid 50 µM, and lecanoric acid 100 µM; T98G cells—atranorin 50 µM, caperatic acid 100 µM, physodic acid 25 µM, squamatic acid 50 µM, salazinic acid 100 µM, and lecanoric acid 100 µM; U-138 MG cells—atranorin 25 µM, caperatic acid 50 µM, physodic acid 25 µM, squamatic acid 50 µM, salazinic acid 50 µM, and lecanoric acid 100 µM. As far as the TMZ treatment is concerned, it was added in the concentrations depending on the MGMT expression and methylation status, i.e., TMZ 30 µM was added to the A-172 cell line, and TMZ 100 µM was added to both the T98G and U-138 MG cell lines. In the case of the 2D culture, the cells were treated with the compounds 24 h after seeding, whereas, in regard to 3D culture, 5 days were needed to form spheroids. All subsequent analyses were performed 48 h after treatment.
(§2) The Universal RNA Purification Kit (EURx, Gdańsk, Poland) was used for total RNA isolation from the A-172, T98G, and U-138 MG cells, and the Revert-Aid First Strand cDNA Synthesis kit (Fermentas, Burlington, ON, Canada) was chosen for cDNA synthesis. Quantitative real-time PCR (qPCR) was performed using Hot FIREPol EvaGreen qPCR Mix Plus (Solis Biodyne, Tartu, Estonia) and LightCycler 96 (Roche Diagnostics GmbH, Mannheim, Germany). Primer sequences were previously published and their synthesis was performed at the Institute of Biochemistry and Biophysics, Warsaw, Poland. The protocol started with 15 min enzyme activation at 95 °C, followed by 40 cycles of 95 °C for 15 s; appropriate annealing temperature for 20 s; 72 °C for 40 s and the final elongation at 72 °C for 5 min. Melting curve analysis was used to confirm the generation of a single amplification product. TATA box-binding protein (TBP), a component of the DNA-binding protein complex TFIID, served as the endogenous RNA control. The results were expressed as N-fold differences in the gene expression relative to the TBP gene. The ΔΔCt method was used for fold-change calculation. All samples were analyzed in triplicate, and the reaction was repeated at least twice.

[3] = tested on: Wnt/β-catenin pathway target genes in T98G cells; experiment: qPCR of β-catenin and Wnt target genes, T98G; assay type: cell-based, human; details: 48 h, mRNA vs DMSO control, single agent
Description: as §1, §2

U-138 MG cells [4] = tested on: U-138 MG cells; set-up: method as in PMID 33916370; details: taken from the literature, ref [14]; read-out: IC50 [uM] ± SEM U-138 MG; cited from earlier work
[5] = tested on: Wnt/β-catenin pathway target genes in U-138 MG cells; experiment: qPCR of β-catenin and Wnt target genes, U-138 MG; assay type: cell-based, human; details: 48 h; for NEDD9 expression: TMZ 100 µM
Description: as §1, §2

T98G cells [6] = details: taken from the literature, ref [14]; read-out: IC50 [uM] ± SEM T98G; cited from earlier work
[7] = tested on: A375 melanoma cancer cells; set-up: method as in PMID 28012710; details: ref [33]; cited from earlier work
[8] = Parallel artificial membrane permeability assay for the blood-brain barrier (PAMPA-BBB); assay type: in vitro ADME; details: pH 7.4, 4 h, 37 °C, mean ± SEM, n = 3, Pe > 1.5 high, < 1.5 low permeation predicted, read-out: Pe × 10^−6
Description: The parallel artificial membrane permeability assay (PAMPA) for the blood-brain barrier (BBB) (Pion Inc., Billerica, MA, USA) was used to analyze whether the lichen secondary metabolites tested in this study were able to cross the BBB. The stock solutions (5 mg/mL) of tested compounds were prepared using DMSO. Next, the donor solution (24.75 μg/mL) using Prisma buffer (pH = 7.4; Prisma HT, Pion Inc., Billerica, MA, USA) were made. Firstly, 180 μL of the donor solution were added to the donor wells. Then the filter membranes were coated with 5 μL BBB-1 lipid solution (Pion Inc., Billerica, MA, USA) and the acceptor wells were filled with 200 μL BSB (Brain Sink Buffer, Pion Inc., Billerica, MA, USA). The plates were sandwiched together and incubated for 4 h at 37 °C (Thermo Scientific MaxQ 4450, Waltham, MA, USA). The results were determined by spectroscopic analysis (Multiskan GO microplate reader, Waltham, MA, USA), with the appropriate wavelength for a given compound (240 nm for […] salazinic acid, 250 nm for atranorin and squamatic acid, 263 nm for physodic acid, and 270 nm for lecanoric acid). […] Pe is the effective permeability coefficient (cm/s), VD-donor volume, VA-acceptor volume, Ceq-equilibrium concentration, Ceq=CD×VD+CA×VA/VD+VA , S-membrane area, and t-incubation time (in seconds). […] Samples were analyzed in triplicate, and the average was reported.

T98G cells [9] = experiment: Apoptosis, caspase-3/7 and 7-AAD flow cytometry, T98G; assay type: cell-based, human
Description: as §1
(§3) The fluorescent-based analysis of apoptosis using Muse® Caspase-3/7 Kit was performed in order to analyze the percentage of live, early, and late apoptotic; total apoptotic; and dead cells in A-172, T98G, and U-138 MG GBM cells treated with lichen secondary metabolites. The principle of the method relies on the measurement of the activity of executioner caspases, i.e., caspase-3 and caspase-7, as well as analyzing the integrity of the cell membrane with the use of a dead cell marker 7-AAD. Cell seeding and treatment followed the same protocol as for cell cycle or ROS generation analysis, while the subsequent procedures were performed according to the manufacturer’s recommendations.

U-138 MG cells [10] = experiment: Apoptosis, caspase-3/7 and 7-AAD flow cytometry, U-138 MG; assay type: cell-based, human; details: 48 h
Description: as §1, §3

A-172 cells = details: taken from the literature, ref [14]; read-out: IC50 [uM] ± SEM A-172; cited from earlier work
T98G cells [11] = experiment: ROS (superoxide) generation, flow cytometry, T98G; assay type: cell-based, human; details: 48 h
Description: (§4) Based on the MTT test, the lichen secondary metabolite concentrations allowing the survival of more than 70% of cells were chosen for the subsequent experiments. The compounds were added as follows: A-172 cells—atranorin 25 µM, caperatic acid 50 µM, physodic acid 25 µM, squamatic acid 25 µM, salazinic acid 50 µM, and lecanoric acid 100 µM; T98G cells—atranorin 50 µM, caperatic acid 100 µM, physodic acid 25 µM, squamatic acid 50 µM, salazinic acid 100 µM, and lecanoric acid 100 µM; U-138 MG cells—atranorin 25 µM, caperatic acid 50 µM, physodic acid 25 µM, squamatic acid 50 µM, salazinic acid 50 µM, and lecanoric acid 100 µM. […]
The intracellular detection of superoxide radicals was detected by flow cytometric analysis after the staining with dihydroethidium, using The Muse® Oxidative Stress Kit (Merck, Darmstadt, Germany). Briefly, 100,000 cells per well were seeded on 6-well plates and after a 24 h incubation they were treated with the analyzed lichen secondary metabolites in the concentrations allowing >70% of cell survival; cells treated with DMSO were used as the negative control. […] The obtained data were evaluated using Muse® Analysis Software ver. […]

[12] = tested on: T98G cells-derived spheroids; experiment: Microarray expression study of T98G spheroids; assay type: cell-based, human; details: 48 h, TMZ 100 µM, FC > abs. 2
Description: Moreover, the 3D culture of the T98G cell line was also established. The cells were cultured in ultra-low attachment microplates (Corning®, Corning, NY, USA) (1000 cell per well) to form spheroids. The standard medium was supplemented with Corning® Matrigel® Matrix for Organoid Culture (3.5%) (Corning®, Corning, NY, USA) and epidermal growth factor—EGF (10 ng/mL) (Stemcell Technologies, Vancouver, BC, Canada). Both 2D and 3D cell cultures were grown in a standard humidified incubator (Memmert, Schwabach, Germany) at 37 °C in 5% CO2 and 95% air atmosphere.
as §4
The obtained CEL files were further analyzed using the R statistical language and Bioconductor package, including the relevant Bioconductor libraries. […]

[13] = mRNA vs DMSO control, single agent, (TMZ 30 µM)
[14] = mRNA vs DMSO control, single agent

For `CC(=O)C1=C(O)C=C2Oc3c(C(C)=O)c(O)c(C)c(O)c3[C@]2(C)C1=O` [(−)-usnic acid], the “ability to cross the blood-brain barrier” value [1] is listed as “can cross the blood-brain barrier”.
In the case of `Cn1ncnc2c(=O)n(C)c(=O)nc1-2` [PKF118-310, reference compound], the “c-MYC expression” value [2, 13] is reported as “did not diminish”, the “c-MYC expression” value [3] is reported as “did not diminish” and the “BIRC5 expression” value ([3]; TMZ 100 µM) is reported as “downregulated”.
In the case of `CCCCCC(=O)Cc1cc(O)cc2c1C(=O)Oc1cc(O)c(C(=O)O)c(CCCCC)c1O2` [Physodic acid], the “CCND1 expression” value ([2]; co-treatment with TMZ 30 µM) is given as “upregulation”, the “NEDD9 expression” value [2, 14] is given as “downregulated” and the IC50 (U-138 MG cells [4]) is given as 45.7 ± 4.2 µM. The “expression of the Wnt target genes” value ([5]; co-treatment with TMZ 100 µM) was “huge downregulatory effect”, the “Axin2 expression” value [5, 14] was “decreased” and the “CCND1 expression” value [5, 14] was “downregulated CCND1 expression by around half”. The “NEDD9 expression” value [5, 14] was “upregulated”, the IC50 (T98G cells [6]) was 50.6 ± 1.09 µM and the “apoptosis induction” value [7] was “activated an apoptotic process”. For the same molecule, the Papp at 4 h, 24.75 µg/mL [8] was 3.9 ± 0.2 ×10⁻⁶ cm/s, the “c-MYC expression” value [3] was “downregulated” and the “BIRC5 expression” value ([3]; TMZ 100 µM) was “downregulated”. For the same molecule, the “number of apoptotic cells vs control” value (T98G cells [9]; 48 h, topotecan 100 nM) was “significant increase”, the apoptotic cells detected (T98G cells [9]; 48 h treatment) was roughly 80% and the “effect on apoptosis” value (U-138 MG cells [10]) was “anti-apoptotic effect”. For the same molecule, the IC50 (A-172 cells) was 42.4 ± 1.25 µM, the “ability to cross the blood-brain barrier” value [1] was “can cross the blood-brain barrier” and the “oxidative stress (superoxide) induction” value (T98G cells [11]) was “induce oxidative stress”.
In the case of `Cn1nnc2c(C(N)=O)ncn2c1=O` [TMZ, temozolomide], the “Axin2 expression” value [2, 13] is reported as “upregulated”, the “c-MYC expression” value [2, 13] is reported as “upregulated” and the “NEDD9 expression” value [5, 14] is reported as “downregulated”. For the same molecule, the “Axin2 expression” value ([3]; TMZ 100 µM) was “downregulation”, the “BIRC5 expression” value ([3]; TMZ 100 µM) was “downregulation” and the “number of significantly downregulated genes vs control” value [12] was 46. The “number of significantly upregulated genes vs control” value [12] was 15.
In the case of `COc1cc(C)c(C(=O)Oc2cc(C)c(C(=O)O)c(O)c2)c(O)c1` [evernic acid], the “ability to cross the blood-brain barrier” value [1] is listed as “can cross the blood-brain barrier”.
